Results from ChEMBL document CHEMBL5500364, “Design, synthesis, and biological evaluation of some 2-(3-oxo-5,6-diphenyl-1,2,4-triazin-2(3H)-yl)-N-phenylacetamide hybrids as MTDLs for Alzheimer's disease therapy” (Eur J Med Chem, 2024).
Activity calls are given as the source filed them. The rule behind the calls is not given here.

Key:
[1] = system: Rattus norvegicus; assay: Reversal of amyloid beta (1 to 42 residues) induced cognitive impairment in Wistar rat assessed as decrease in BACE-1 level in DG region of hippocampus at 10 mg/kg, po pretreated with amyloid beta for 7 days followed by compound administration for 9 days and measured after 5 days by immuno histochemical analysis; format: functional, organism-based; details: time 14.0 day
[2] = target: Amyloid-beta precursor protein (Homo sapiens) (UniProt P05067); assay: Inhibition of amyloid beta (1 to 42) (unknown origin) aggregation assessed as reduction in size of amyloid-beta aggregates measured within 48 hrs by SEM imaging analysis
[3] = target: Amyloid-beta precursor protein (Homo sapiens) (UniProt P05067); assay: Inhibition of human AchE-induced amyloid beta (1 to 42) (unknown origin) aggregation at 5 to 20 uM incubated for 48 hrs by Thioflavin T fluorescence assay relative to control; details: dose 5-20 µM
[4] = Neurotoxicity in human SH-SY5Y cells assessed as reduction in cell population at 80 uM incubated for 24 hrs by MTT assay
[5] = Total AUC in male Wistar rat at 10 mg/kg, po measured after 72 hrs by HPLC analysis; format: ADME, organism-based; details: in vivo
[6] = Cmax in male Wistar rat at 10 mg/kg, po measured after 72 hrs by HPLC analysis; format: ADME, organism-based; details: in vivo
[7] = system: Rattus norvegicus; assay: Antialzheimer activity against scopolamine-induced amnesia in male Wistar rat model assessed as increase in total arm enteries at 2.5 to 10 mg/kg, po preadministered with compound for 30 mins starting from 7 th day trail followed by scopolamine administration and measured after 5 mins by Y maze test; format: functional, organism-based; details: dose 2.5-10 mg/kg, time 35.0 min
[8] = system: Drosophila; assay: Neuroprotective activity in ey-GAL4>UAS-amyloid beta (1 to 42) induced cellular toxicity in Oregon R-positive Drosophila model assessed as rescue in eye phenotype at 10 uM by Stereo zoom microscopic imaging analysis relative to control; format: functional
[9] = Acute toxicity in Wistar rat assessed as effect on lung appearance at 500 to 1000 mg/kg, po administered for 14 days by histopathological analysis; format: organism-based; details: in vivo, 336 h, dose 500-1000 mg/kg, time 14 day
[10] = Acute toxicity in Wistar rat assessed as effect on cardiac muscle at 500 to 1000 mg/kg, po administered for 14 days by histopathological analysis; format: organism-based; details: in vivo, 336 h, dose 500-1000 mg/kg, time 14 day
[11] = Acute toxicity in Wistar rat assessed as toxicity signs at 500 to 1000 mg/kg, po administered for 14 days; format: organism-based; details: in vivo, 336 h, dose 500-1000 mg/kg, time 14 day
[12] = target: Beta-secretase 1 (Homo sapiens, UniProt P56817); assay: Inhibition of human BACE-1 using (7-Methoxycoumarin-4-acetyl-[Asn670, Leu671]-Amyloid beta/A4 precursor protein 770 fragments 667-676- (2, 4-dinitrophenyl) Lys-Arg-Arg amide trifluoroacetate salt as substrate incubated for 2 hrs by FRET-based analysis
[13] = system: Rattus norvegicus; assay: Antialzheimer activity against scopolamine-induced amnesia in male Wistar rat model assessed as restoration of memory function by measuring percentage spontaneous alteration at 2.5 to 10 mg/kg, po preadministered with compound for 30 mins starting from 7 th day trail followed by scopolamine administration and measured after 5 mins by Y maze test; format: functional, organism-based; details: dose 2.5-10 mg/kg, time 35.0 min
[14] = Toxicity in wildtype Oregon R-positive Drosophila assessed as eclosion at 50 uM pretreated for 5 days and measured for 15 days relative to control; details: 480 h, time 20 day
[15] = system: Hippocampus; assay: Reversal of scopolamine-induced oxidative stress in male Wistar rat brain hippocampus assessed as decrease in MDA level at 2.5 to 10 mg/kg, po preadministered with compound for 30 mins starting from 7 th day trail followed by scopolamine administration and measured after 5 mins by TBARS assay; format: functional, organism-based; details: dose 2.5-10 mg/kg, time 35.0 min
[16] = Half-life in male Wistar rat at 10 mg/kg, po measured after 72 hrs by HPLC analysis; format: ADME, organism-based; details: in vivo
[17] = target: Amyloid-beta precursor protein (Homo sapiens) (UniProt P05067); assay: Inhibition of amyloid beta (1 to 42) (unknown origin) self aggregation ar 5 to 20 uM incubated for 48 hrs by Thioflavin T fluorescence assay relative to control; details: dose 5-20 µM
[18] = Acute toxicity in Wistar rat assessed as maximum tolerated dose administered orally for 14 days; details: in vivo, route po, time 14 day
[19] = Acute toxicity in Wistar rat assessed as effect on DCT shape at 500 to 1000 mg/kg, po administered for 14 days by histopathological analysis; format: organism-based; details: in vivo, 336 h, dose 500-1000 mg/kg, time 14 day
[20] = system: Rattus norvegicus; assay: Reversal of amyloid beta (1 to 42 residues) induced cognitive impairment in Wistar rat assessed as reduction in escape latency time at 10 mg/kg, po pretreated with amyloid beta for 7 days followed by compound administration for 9 days and measured after 5 days by Morris water maze test; format: functional, organism-based; details: time 14.0 day
[21] = system: Rattus norvegicus; assay: Reversal of amyloid beta (1 to 42 residues) induced cognitive impairment in Wistar rat assessed as decrease in Tau protein level at 10 mg/kg, po pretreated with amyloid beta for 7 days followed by compound administration for 9 days and measured after 5 days by Western blot analysis; format: functional, organism-based; details: time 14.0 day
[22] = target: Amyloid-beta precursor protein (Homo sapiens) (UniProt P05067); assay: Inhibition of amyloid beta (1 to 42) (unknown origin) aggregation assessed as reduction in amyloid-beta aggregates at 50 uM incubated for 48 hrs by TEM analysis
[23] = Acute toxicity in Wistar rat assessed as toxicity symptoms at 500 to 1000 mg/kg, po administered for 14 days; format: organism-based; details: in vivo, 336 h, dose 500-1000 mg/kg, time 14 day
[24] = system: Rattus norvegicus; assay: Reversal of amyloid beta (1 to 42 residues) induced cognitive impairment in Wistar rat assessed as decrease in amyloid level in CA3 region of hippocampus at 10 mg/kg, po pretreated with amyloid beta for 7 days followed by compound administration for 9 days and measured after 5 days by immuno histochemical analysis; format: functional, organism-based; details: time 14.0 day
[25] = target: Dual specificity tyrosine-phosphorylation-regulated kinase 1A (Homo sapiens, UniProt Q13627); assay: Inhibition of Dyrk1A (unknown origin) incubated for 1 hrs in presence of [gamma-33P]-ATP by microplate scintillation counter based radiometric protein kinase assay
[26] = system: Drosophila; assay: Neuroprotective activity against ey-GAL4>UAS-amyloid beta (1 to 42) induced cellular toxicity in Oregon R-positive Drosophila model assessed as rescue of ommatidial patterns in eye at 10 to 20 uM by scanning electron microscopic imaging analysis; format: functional, organism-based; details: dose 10-20 µM
[27] = target: Acetylcholinesterase (Homo sapiens, UniProt P22303); assay: Inhibition of human erythrocyte AChE using acetylthiocholine iodide as substrate preincubated for 30 mins followed by substrate addition by DTNB based Ellman's colorimetric method
[28] = Acute toxicity in Wistar rat assessed as effect on kidney appearance at 500 to 1000 mg/kg, po administered for 14 days by histopathological analysis; format: organism-based; details: in vivo, 336 h, dose 500-1000 mg/kg, time 14 day
[29] = system: Rattus norvegicus; assay: Reversal of amyloid beta (1 to 42 residues) induced cognitive impairment in Wistar rat assessed as decrease in amyloid level in CA1 region of hippocampus at 10 mg/kg, po pretreated with amyloid beta for 7 days followed by compound administration for 9 days and measured after 5 days by immuno histochemical analysis; format: functional, organism-based; details: time 14.0 day
[30] = system: Rattus norvegicus; assay: Reduction in AChE level in scopolamine-induced male Wistar rat brain hippocampus preadministered with compound orally for 30 mins starting from 7 th day trail followed by scopolamine administration and measured after 5 mins by Ellman's method; format: functional, tissue-based; details: dose 2.5-10 mg/kg, route po, time 35.0 min
[31] = system: Rattus norvegicus; assay: Reversal of amyloid beta (1 to 42 residues) induced cognitive impairment in Wistar rat assessed as increase in platform crossings at 10 mg/kg, po pretreated with amyloid beta for 7 days followed by compound administration for 9 days and measured after 5 days by Morris water maze test; format: functional, organism-based; details: time 14.0 day

Chain of Amyloid-beta precursor protein (Homo sapiens) (P05067 whole entry): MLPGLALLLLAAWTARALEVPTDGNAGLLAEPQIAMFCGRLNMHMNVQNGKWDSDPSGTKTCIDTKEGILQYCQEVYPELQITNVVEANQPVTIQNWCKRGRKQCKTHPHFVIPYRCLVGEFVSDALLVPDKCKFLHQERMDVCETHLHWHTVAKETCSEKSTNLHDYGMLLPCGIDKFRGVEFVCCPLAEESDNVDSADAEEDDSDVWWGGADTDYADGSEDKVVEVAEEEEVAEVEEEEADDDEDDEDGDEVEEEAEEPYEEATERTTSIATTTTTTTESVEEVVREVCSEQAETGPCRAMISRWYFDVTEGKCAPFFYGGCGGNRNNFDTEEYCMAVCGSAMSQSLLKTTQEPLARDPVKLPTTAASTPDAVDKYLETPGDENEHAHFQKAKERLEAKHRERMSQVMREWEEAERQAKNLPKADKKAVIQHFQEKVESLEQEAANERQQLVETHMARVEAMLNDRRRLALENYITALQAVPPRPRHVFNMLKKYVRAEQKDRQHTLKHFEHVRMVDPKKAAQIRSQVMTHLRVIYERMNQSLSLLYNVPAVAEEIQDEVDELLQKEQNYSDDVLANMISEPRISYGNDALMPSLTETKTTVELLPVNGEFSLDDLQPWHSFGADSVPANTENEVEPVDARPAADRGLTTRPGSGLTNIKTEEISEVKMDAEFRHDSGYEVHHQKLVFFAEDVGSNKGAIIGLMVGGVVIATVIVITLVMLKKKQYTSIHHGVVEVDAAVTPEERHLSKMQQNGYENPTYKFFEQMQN
Chain of Acetylcholinesterase (P22303 whole entry): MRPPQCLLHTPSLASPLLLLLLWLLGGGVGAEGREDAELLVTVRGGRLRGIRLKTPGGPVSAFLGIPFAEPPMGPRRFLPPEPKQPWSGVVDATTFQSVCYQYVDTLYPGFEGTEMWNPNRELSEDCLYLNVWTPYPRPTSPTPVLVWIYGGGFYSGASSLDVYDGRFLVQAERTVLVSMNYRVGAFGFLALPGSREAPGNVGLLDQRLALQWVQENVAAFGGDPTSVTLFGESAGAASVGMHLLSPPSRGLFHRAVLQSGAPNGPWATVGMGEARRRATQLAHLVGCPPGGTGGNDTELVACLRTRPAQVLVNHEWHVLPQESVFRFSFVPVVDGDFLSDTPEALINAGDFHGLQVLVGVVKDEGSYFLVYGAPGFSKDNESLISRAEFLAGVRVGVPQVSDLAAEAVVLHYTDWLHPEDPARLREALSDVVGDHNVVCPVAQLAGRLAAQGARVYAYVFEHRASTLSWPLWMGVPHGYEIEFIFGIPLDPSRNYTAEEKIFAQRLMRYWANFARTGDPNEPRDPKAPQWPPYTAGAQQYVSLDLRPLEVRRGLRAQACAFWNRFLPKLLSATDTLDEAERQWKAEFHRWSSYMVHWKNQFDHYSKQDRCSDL
Chain of Beta-secretase 1 (P56817 whole entry, the tested form may be a part): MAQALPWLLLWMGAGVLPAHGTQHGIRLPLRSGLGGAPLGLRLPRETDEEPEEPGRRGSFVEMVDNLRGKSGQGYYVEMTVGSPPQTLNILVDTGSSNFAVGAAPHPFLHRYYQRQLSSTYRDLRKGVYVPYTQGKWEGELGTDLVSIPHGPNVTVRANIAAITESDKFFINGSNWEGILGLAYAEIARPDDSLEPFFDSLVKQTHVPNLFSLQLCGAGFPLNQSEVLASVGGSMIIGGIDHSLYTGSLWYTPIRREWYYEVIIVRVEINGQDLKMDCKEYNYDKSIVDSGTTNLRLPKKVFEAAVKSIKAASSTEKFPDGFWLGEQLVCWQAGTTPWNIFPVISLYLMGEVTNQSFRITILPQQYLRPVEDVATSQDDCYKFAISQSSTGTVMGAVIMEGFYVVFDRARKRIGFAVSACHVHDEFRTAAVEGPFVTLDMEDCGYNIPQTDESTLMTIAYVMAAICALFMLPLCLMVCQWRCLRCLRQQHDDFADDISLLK

COc1cc(NC(=O)Cn2nc(-c3ccccc3)c(-c3ccccc3)nc2=O)cc(OC)c1
Activity [1]: Active | inhibition [2]: Active | inhibition [3]: 41.3% | Activity [4]: Non-Toxic | AUC at 72 h [5]: 1740 ng·h/mL | Cmax [6]: 355 ng/mL | Activity [7]: Active | Activity [8]: 21% | Activity [9]: Non-Toxic | Activity [10]: Non-Toxic | Activity [11]: Non-Toxic | IC50 [12]: 542 nM | Activity [13]: Active | Activity [14]: 25% | Activity [15]: Active | half-life [16]: 41 h | inhibition [17]: 23.6% | MTD at 336 h [18]: 1000 mg/kg | Activity [19]: Non-Toxic | Activity [20]: Active | Activity [21]: Active | inhibition [22]: Active | Activity [23]: Non-Toxic | Activity [24]: Active | IC50 [25]: > 10000 nM | Activity [26]: Active | IC50 [27]: 486 nM | Activity [28]: Non-Toxic | Activity [29]: Active | Activity [30]: Dose-Dependent Effect | Activity [31]: Active
